In patent US20040044013A1, “1-dimercaptoalkylquinazolin-2,4(1h,3h)-diones as matrix metalloproteinase (mmp) inhibitors” (priority 2001, published 2004):

Assays:
Format in all cases: biochemical
[1] = biological target: T1, recombinant catalytic domain of MMP-3 (Homo sapiens, UniProt P08254); assay: Quantitative fluorescence assay for matrix metalloproteinases, MMP-3
T1 construct: Cloning and Expression of the Catalytic Domains of MT1-MMP and MMP-3; made in house; host or cells: Escherichia coli (inclusion bodies, renatured)
Description: (§1) Cloning and Expression of the Catalytic Domains of MT1-MMP and MMP-3
(§2) Based on the good experience with the use of the catalytic domain of MMP-8 in the kinetic measurements, two more recombinant expressions were established analogously, i.e. that of human membrane type 1 matrix metalloproteinase (MT1-MMP; MMP-14) and that of human MMP-3 (stromelysin-1). Both enzymes are exemplary representatives of subgroups of human matrix metalloproteinases. Both proteins may be renatured stably and in catalytically active form from inclusion bodies of transformed Escherichia coli cells. As in the recombinant MMP-8 thus the subsequent activation of the enzymes is dropped, which improves the reproducibility of the kinetic measurements. The purity of the recombinant enzyme domains was at least 70%.
The cloning and expression of the catalytic domains oriented itself by the following publications: Lichte A., Kolkenbrock H., Tschesche H.: The recombinant catalytic domain of membrane-type matrix metalloproteinase-1 (MT1-MMP) induces activation of progelatinase A and progelatinase A complexed with TIMP-2. […]
(§3) Quantitative Fluorescence Assay for Matrix Metalloproteinases
(§4) The fluorescent group Mca is separated from the internal quencher Dpa by enzymatic cleavage of the synthetic substrate Mca-Pro-Leu-Gly-Leu-Dpa-Ala-Arg-NH2 using the respective collagenase. This is accompanied by a great increase in fluorescence in the measuring batch, which can be quantified using a fluorimeter (λex 328 nm, λem 393 nm) and proceeds linearly within the first few minutes. […] The proteolytic residual activity of pre-incubated batches of enzyme and inhibitor is measured, the substrate and enzyme concentrations having been kept constant and the inhibitor concentration having been varied. […]
(§5) 5 min. preliminary incubation of the enzyme-inhibitor mixture at room temperature while stirring start of the reaction with 10 μl substrate dissolved in DMSO recording of the time-sensitive fluorescence increase over a period of 2 min.

[2] = biological target: T2, recombinant catalytic domain of MT1-MMP (MMP-14) (Homo sapiens, UniProt P50281); assay: Quantitative fluorescence assay for matrix metalloproteinases, MT1-MMP
T2 construct: Cloning and Expression of the Catalytic Domains of MT1-MMP and MMP-3; made in house; host or cells: Escherichia coli (inclusion bodies, renatured)
Description: as §1
as §2, with “The purity of the recombinant enzyme domains was at least 70%.” left out
as §3, §4

[3] = biological target: T3, MMP-9 (Homo sapiens, UniProt P14780); assay: Quantitative fluorescence assay for matrix metalloproteinases, MMP-9
T3 construct: from tissue; host or cells: human buffy coat (leukocytes)
Description: Preparation of the Human Collagenase MMP-9
Native MMP-9 was obtained reproducibly and with good yield and purity from human Buffy Coat. For this purpose, Buffy Coat is brought to a final concentration of 0.4% using 10% (v/v) triton X-100, shaken on ice for 30 min. and then 1 vol. double binding buffer (40 mM Tris-HCl, pH 7.5, 10 mM CaCl2, 1 M NaCl, 0.2% (v/v) triton X-100) is added and shaking on ice is continued for another 30 min.
The solution is centrifuged off at 16,000 rpm on an SS-34 rotor at 4° C. for 15 min. and filtered on glass wool. The filtrate is batched with gelatin agarose equilibrated with binding buffer and shaken on ice for 1 hour.
The charged gelatin agarose is transferred to a column and rinsed in protein-free manner using at least 10 vol. binding buffer. The bound MMP-9 is eluted with 2 gel volumes binding buffer plus 5% (v/v) DMSO.
For an exchange of buffers and simultaneous separation of minor MMP-2 contaminations the eluate can be separated on sephadex G-75 by means of gel filtration. Buffer I (20 mM Tris-HCl, pH 7.5, 5 mM CaCl2, 100 mM NaCl, 0.1% (v/v) triton X-100) is used for this purpose. […]
as §3, §4, §5

[4] = biological target: T4, MMP-2 (Homo sapiens, UniProt P08253); assay: Quantitative fluorescence assay for matrix metalloproteinases, MMP-2
T4 construct: endogenous in cells; host or cells: cultured human dermal fibroblasts (secreted into culture supernatant)
T4 sequence (P08253 110-660): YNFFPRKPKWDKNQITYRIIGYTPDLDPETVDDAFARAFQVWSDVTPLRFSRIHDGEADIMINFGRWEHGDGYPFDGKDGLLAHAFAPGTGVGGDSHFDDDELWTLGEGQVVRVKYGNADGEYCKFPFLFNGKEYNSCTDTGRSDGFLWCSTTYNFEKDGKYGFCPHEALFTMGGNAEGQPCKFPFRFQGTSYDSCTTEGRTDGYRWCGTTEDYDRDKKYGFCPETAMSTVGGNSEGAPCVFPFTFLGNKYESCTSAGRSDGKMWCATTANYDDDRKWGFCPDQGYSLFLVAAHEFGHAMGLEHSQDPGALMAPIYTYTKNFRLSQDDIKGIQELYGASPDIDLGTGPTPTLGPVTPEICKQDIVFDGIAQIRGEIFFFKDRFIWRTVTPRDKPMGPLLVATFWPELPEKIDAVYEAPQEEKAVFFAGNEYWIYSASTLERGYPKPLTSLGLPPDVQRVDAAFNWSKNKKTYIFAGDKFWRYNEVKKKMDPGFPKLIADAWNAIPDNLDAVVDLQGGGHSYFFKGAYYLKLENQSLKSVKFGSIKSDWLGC
Description: Inhibition of Matrix Metalloproteinase-2 (MMP-2)
MMP-2 (gelatinase) is supplied by cultured dermal fibroblasts to the culture medium in considerable amounts and is thus easily accessible.
For this purpose, human dermal fibroblasts are obtained according to established standard methods and cultured and the cell-free culture supernatant is treated with trypsin. Trypsin is then inactivated with a specific inhibitor (TLCK) and active MMP-2 is partially purified by affinity chromatography on gelatin sepharose and subsequent gel filtration on sepharose. MMP-2 was identified and characterized by the availability of a commercial immunoassay.
as §3
The fluorescent group Mca is separated from the internal quencher Dpa by enzymatic cleavage of the synthetic substrate Mca-Pro-Leu-Gly-Leu-Dpa-Ala-Arg-NH2 using the respective collagenase. This is accompanied by a great increase in fluorescence in the measuring batch, which can be quantified using a fluorimeter (λex 328 nm, λem 393 nm) and proceeds linearly within the first few minutes. A certain specificity of the test to matrix metalloproteinases follows from the amino acid sequence -Pro-Leu-Gly-Leu- in the substrate, on the one hand, and from the select incubation conditions, on the other hand. Matrix metalloproteinases cleave the substrate at the Gly-Leu bond. The proteolytic residual activity of pre-incubated batches of enzyme and inhibitor is measured, the substrate and enzyme concentrations having been kept constant and the inhibitor concentration having been varied. Three series of measurements using a different substrate concentration were made for each tested inhibitor.
[…] inhibitor dissolved in DMSO, or DMSO alone (non-inhibitory approach) 4 μl enzyme (MMP-2 or MMP-9 or catalytic domain of MMP-8)
as §5

[5] = biological target: T5, catalytic domain of MMP-8 (Homo sapiens, UniProt P22894); assay: Quantitative fluorescence assay for matrix metalloproteinases, MMP-8
T5 construct: instead of the whole enzyme only its enzymatically active catalytic domain was cloned into E. coli; made in house; host or cells: E. coli
Description: Cloning and Expression of the Catalytic MMP-8 Domain
The catalytic MMP-8 domain was used as another test enzyme because it has a high degree of stability and is also available as an active enzyme and therefore needs not be activated, which is in consideration as one of the most frequent causes of error since the mercury compounds used for the activation often interfere with the test system and/or the enzyme and in this way can falsify the measuring results. The cloning strategy was directed towards the circumstance that instead of the whole enzyme only its enzymatically active catalytic domain was cloned into E. coli.
The cloning and expression of the recombinant catalytic MMP-8 domain was carried out in accordance with the information given by SCHNIERER et al. (Schnierer S., Kleine T., Gote T., Hillemann A., Knauper V., Tschesche H.: The recombinant catalytic domain of human neutrophil collagenase lacks type I collagen substrate specificity. Biochem Biophys Res Comm (1993), vol. 191, No. 2, 319-326).
as §3, §4, §5

T3 sequence (P14780 107-707 limits assumed): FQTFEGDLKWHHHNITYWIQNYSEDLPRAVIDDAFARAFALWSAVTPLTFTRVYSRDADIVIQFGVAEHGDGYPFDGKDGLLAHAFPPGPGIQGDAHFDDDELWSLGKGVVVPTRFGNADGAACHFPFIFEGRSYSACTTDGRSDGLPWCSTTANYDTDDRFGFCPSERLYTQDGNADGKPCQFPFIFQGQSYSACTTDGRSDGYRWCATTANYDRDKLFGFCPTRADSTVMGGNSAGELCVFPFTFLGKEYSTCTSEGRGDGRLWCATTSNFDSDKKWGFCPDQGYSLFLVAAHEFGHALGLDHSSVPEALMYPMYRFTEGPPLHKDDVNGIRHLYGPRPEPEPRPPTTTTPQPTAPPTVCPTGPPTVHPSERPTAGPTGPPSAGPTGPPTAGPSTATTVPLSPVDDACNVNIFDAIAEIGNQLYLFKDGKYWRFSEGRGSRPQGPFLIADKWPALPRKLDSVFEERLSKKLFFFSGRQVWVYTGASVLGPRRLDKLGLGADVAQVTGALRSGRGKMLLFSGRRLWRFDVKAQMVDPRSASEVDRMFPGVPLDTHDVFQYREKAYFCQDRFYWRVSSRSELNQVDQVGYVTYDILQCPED
T5 sequence (P22894 100-262 limits assumed): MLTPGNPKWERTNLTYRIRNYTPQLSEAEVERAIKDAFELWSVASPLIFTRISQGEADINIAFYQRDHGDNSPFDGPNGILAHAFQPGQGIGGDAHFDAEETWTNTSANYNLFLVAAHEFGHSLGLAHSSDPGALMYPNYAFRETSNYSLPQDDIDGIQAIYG
T1 sequence (P08254 100-272 limits assumed): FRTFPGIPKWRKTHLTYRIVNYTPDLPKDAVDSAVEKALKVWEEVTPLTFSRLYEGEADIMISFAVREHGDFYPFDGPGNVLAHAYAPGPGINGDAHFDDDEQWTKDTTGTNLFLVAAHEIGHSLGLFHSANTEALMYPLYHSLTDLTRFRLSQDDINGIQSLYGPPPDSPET

SMILES: O=c1[nH]c(=O)n(CC(S)CS)c2ccccc12 (racemic) [Example 2, (R,S)-1-(2′,3′-Dimercapto-prop-1′-yl)quinazoline-2,4(1H,3H)-dione]
- MMP-3 inhibition ([1]; with 4 μM inhibitor): 75%
- MT1-MMP inhibition ([2]; with 4 μM inhibitor): 60%
- MMP-9 inhibition ([3]; with 4 μM inhibitor): 80%
- MMP-2 inhibition ([4]; with 4 μM inhibitor): 75%
- MMP-8 inhibition ([5]; with 4 μM inhibitor): 75%

SMILES: O=c1[nH]c(=O)n(CCC(S)CS)c2ccccc12 (racemic) [Example 3, (R,S)-1-(3′,4′-Dimercapto-but-1′-yl)quinazoline-2,4(1H,3H)dione]
- MMP-3 inhibition ([1]; with 9 μM inhibitor): 50%
- MMP-9 inhibition ([3]; with 3.5 μM inhibitor): 50%
- MMP-2 inhibition ([4]; with 5 μM inhibitor): 50%
- MMP-8 inhibition ([5]; with 3.5 μM inhibitor): 50%

SMILES: O=c1[nH]c(=O)n(C(CS)CS)c2ccccc12 [Example 1, 1-(1′,3′-Dimercapto-prop-2′-yl)quinazoline-2,4(1H,3H)dione]
- MMP-3 inhibition ([1]; with 10 μM inhibitor): 50%
- MT1-MMP inhibition ([2]; with 10 μM inhibitor): 30% inhi-
- MMP-9 inhibition ([3]; with 10 μM inhibitor): 60%
- MMP-2 inhibition ([4]; with 10 μM inhibitor): 50%
- MMP-8 inhibition ([5]; with 10 μM inhibitor): 70%
